Experimental data published in US8633207B2, “Quinazoline compounds and methods of use thereof” (Ambit Biosciences Corporation, priority 2010, dated 2014).

What was measured:
Tyk2 = biological target: T1, Tyk2 (Homo sapiens, UniProt P29597); test: Competition binding assay to determine Kd against JAK kinases: Tyk2
T1 construct: made in house; host or cells: T7 phage display, or HEK-293 cells (alternative)
Text: (§1) Competition Binding Assay to Determine Binding Constants (Kd) of the Compounds Against JAK Kinases
(§2) Competition binding assays used herein were developed, validated and performed as described in Fabian et al., Nature Biotechnology 2005, 23, 329-336. Kinases were produced as fusions to T7 phage (See, Fabian et al. or WO04/015142) or alternatively, the kinases were expressed in HEK-293 cells and subsequently tagged with DNA for PCR detection (See, WO08/005,310). For the binding assays, streptavidin-coated magnetic beads were treated with biotinylated affinity ligands for 30 min at rt to generate affinity resins. The liganded beads were blocked with excess biotin and washed with blocking buffer (SeaBlock (Pierce), 1% BSA, 0.05% Tween 20, 1 mM DTT) to remove unbound ligand and to reduce non-specific binding. Binding reactions were assembled by combining kinase, liganded affinity beads, and test compounds in 1× binding buffer (20% SeaBlock, 0.17×PBS, 0.05% Tween 20, 6 mM DTT). Test compounds were prepared as 100× stocks in DMSO and rapidly diluted into the aqueous environment. DMSO was added to control assays lacking a test compound. Primary screen interactions were performed in polypropylene 384-well plates in a final volume of 34 μL, while Kd determinations were performed in polystyrene 96-well plates in a final volume of 135 μL. The assay plates were incubated at room temperature with shaking for 1 hour, long enough for binding reactions to reach equilibrium, and the affinity beads were washed extensively with wash buffer (1×PBS, 0.05% Tween 20) to remove unbound protein. The beads were then resuspended in elution buffer (1×PBS, 0.05% Tween 20, 2 μM non-biotinylated affinity ligand) and incubated at room temperature with shaking for 30 min. The kinase concentration in the eluates was measured by quantitative PCR. Each kinase was tested individually against each compound. Kds were determined using eleven serial threefold dilutions. A selectivity score, which is a quantitative measure of selectivity of a compound against a panel of enzymes, may be calculated for a compound by dividing the number of enzymes for which a compound meets a set criteria, (for example, a binding constant of 100 nM or less), by the total number of enzymes tested.

JAK3 = biological target: T2, JAK3 (Homo sapiens, UniProt P52333); test: Competition binding assay to determine Kd against JAK kinases: JAK3
T2 construct: made in house; host or cells: T7 phage display, or HEK-293 cells (alternative)
T2 sequence (P52333 1-1124): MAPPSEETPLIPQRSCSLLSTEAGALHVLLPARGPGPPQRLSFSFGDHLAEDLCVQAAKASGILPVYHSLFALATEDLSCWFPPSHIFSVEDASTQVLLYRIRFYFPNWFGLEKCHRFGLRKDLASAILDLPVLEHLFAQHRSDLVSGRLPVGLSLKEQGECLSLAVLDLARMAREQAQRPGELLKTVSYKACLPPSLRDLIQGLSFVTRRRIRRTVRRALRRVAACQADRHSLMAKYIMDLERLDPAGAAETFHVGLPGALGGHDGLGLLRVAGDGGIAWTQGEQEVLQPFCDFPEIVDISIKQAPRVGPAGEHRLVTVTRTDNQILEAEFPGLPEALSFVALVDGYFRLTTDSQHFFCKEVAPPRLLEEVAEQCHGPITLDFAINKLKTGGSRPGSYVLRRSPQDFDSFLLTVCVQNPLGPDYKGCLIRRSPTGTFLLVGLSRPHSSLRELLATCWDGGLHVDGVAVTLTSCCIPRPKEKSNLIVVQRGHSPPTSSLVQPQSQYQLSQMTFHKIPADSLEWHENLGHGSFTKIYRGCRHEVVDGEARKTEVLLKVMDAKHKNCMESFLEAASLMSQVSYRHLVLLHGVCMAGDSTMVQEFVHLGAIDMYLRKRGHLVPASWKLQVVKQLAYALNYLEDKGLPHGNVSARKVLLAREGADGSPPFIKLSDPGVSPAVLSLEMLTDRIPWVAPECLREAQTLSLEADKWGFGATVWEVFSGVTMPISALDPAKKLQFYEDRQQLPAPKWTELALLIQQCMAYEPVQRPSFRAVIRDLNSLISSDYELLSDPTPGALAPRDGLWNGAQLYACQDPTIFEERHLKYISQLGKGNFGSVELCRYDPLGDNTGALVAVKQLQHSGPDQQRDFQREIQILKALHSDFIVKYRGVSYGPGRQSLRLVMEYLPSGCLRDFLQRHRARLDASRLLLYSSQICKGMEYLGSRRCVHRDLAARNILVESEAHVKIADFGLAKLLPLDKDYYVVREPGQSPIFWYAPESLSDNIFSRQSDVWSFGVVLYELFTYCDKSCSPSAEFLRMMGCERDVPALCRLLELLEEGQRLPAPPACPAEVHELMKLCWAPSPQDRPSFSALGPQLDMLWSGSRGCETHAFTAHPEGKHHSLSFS
Text: as §1, §2

[1] = tested on: GM-CSFR/JAK2/STAT5 pathway; test: csTF-1 cell-based reporter assay; conditions: Homo sapiens; csTF-1 cells, GM-CSF at 2 ng/mL, 4 hours; read-out: Cell Assay: CS TF-1 reporter assay IC50
Procedure: csTF-1 Cell-Based Reporter Assay
csTF-1 cells are derived from the human erythroleukemia cell line that is growth dependent on GM-CSF and has an intact GM-CSFR/JAK2/STAT5 pathway. The cell line contains stably integrated beta-lactamase reporter gene under the control of the […] (irf 1) response element recognized by the activated transcription factor STATS. csTF-1 cells (Invitrogen K1219) were washed with assay media (97% OPTIMEM/0.5% dialyzed FBS/0.1 mM NEAA/1 mM Na pyr/P/S) and seeded in the same media at 5×10^5 cell/mL in T150 flask. After 16 hour incubation, cells were seeded at 2×10^5 cell/well in 50 μl volume, into Costar, clear bottom, 96-well assay plates. Serial dilutions of compounds were added to the plates with final DMSO concentration at 0.5% and GM-CSF at 2 ng/mL and the plates were then incubated at […] and 5% CO2 for 4 hours. The plates were brought to room temperature before adding Substrate Mixture according to manufacturer's protocol (Invitrogen, Catalog #K1085). The assay plates containing the substrate mixture were incubated in the dark at room temperature for 2 hours. Blue and green fluorescence was measured with excitation at 409 nm and emission at 460 nm (for blue) and excitation at 409 nm and emission at 530 nm (for green) using Spectra Max Gemini EM.

JAK2 = biological target: T3, JAK2 (Homo sapiens, UniProt O60674); test: Competition binding assay to determine Kd against JAK kinases: JAK2
T3 construct: made in house; host or cells: T7 phage display, or HEK-293 cells (alternative)
T3 sequence (O60674 whole entry): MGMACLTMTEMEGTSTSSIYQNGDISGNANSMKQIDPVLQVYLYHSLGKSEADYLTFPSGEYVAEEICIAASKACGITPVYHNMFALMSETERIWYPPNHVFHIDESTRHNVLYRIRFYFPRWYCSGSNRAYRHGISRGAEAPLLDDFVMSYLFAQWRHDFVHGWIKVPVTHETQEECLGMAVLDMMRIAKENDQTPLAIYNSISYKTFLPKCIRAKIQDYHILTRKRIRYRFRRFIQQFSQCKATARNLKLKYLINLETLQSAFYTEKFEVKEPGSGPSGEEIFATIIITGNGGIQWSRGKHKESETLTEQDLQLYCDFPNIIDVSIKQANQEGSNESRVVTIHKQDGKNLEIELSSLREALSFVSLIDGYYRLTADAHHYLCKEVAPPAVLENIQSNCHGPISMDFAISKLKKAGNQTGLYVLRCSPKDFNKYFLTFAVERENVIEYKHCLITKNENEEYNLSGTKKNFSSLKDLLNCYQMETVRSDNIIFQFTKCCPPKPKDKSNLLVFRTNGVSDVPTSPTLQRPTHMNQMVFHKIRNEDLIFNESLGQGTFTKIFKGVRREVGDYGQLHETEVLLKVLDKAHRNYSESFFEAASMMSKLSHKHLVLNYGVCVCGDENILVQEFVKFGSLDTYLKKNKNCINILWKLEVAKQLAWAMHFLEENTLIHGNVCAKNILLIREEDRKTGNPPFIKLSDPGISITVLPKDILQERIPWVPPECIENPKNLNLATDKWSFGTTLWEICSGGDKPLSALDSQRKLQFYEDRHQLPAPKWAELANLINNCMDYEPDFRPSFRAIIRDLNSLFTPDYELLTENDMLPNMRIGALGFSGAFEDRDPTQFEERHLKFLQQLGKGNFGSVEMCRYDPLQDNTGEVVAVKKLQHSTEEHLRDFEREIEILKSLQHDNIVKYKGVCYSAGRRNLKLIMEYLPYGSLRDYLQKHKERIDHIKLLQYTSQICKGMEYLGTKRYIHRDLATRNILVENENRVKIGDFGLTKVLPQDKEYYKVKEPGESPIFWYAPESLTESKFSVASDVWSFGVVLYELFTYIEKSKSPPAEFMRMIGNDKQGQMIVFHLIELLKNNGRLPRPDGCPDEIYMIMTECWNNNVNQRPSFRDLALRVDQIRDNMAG
Text: as §1, §2

T1 sequence (P29597 whole entry): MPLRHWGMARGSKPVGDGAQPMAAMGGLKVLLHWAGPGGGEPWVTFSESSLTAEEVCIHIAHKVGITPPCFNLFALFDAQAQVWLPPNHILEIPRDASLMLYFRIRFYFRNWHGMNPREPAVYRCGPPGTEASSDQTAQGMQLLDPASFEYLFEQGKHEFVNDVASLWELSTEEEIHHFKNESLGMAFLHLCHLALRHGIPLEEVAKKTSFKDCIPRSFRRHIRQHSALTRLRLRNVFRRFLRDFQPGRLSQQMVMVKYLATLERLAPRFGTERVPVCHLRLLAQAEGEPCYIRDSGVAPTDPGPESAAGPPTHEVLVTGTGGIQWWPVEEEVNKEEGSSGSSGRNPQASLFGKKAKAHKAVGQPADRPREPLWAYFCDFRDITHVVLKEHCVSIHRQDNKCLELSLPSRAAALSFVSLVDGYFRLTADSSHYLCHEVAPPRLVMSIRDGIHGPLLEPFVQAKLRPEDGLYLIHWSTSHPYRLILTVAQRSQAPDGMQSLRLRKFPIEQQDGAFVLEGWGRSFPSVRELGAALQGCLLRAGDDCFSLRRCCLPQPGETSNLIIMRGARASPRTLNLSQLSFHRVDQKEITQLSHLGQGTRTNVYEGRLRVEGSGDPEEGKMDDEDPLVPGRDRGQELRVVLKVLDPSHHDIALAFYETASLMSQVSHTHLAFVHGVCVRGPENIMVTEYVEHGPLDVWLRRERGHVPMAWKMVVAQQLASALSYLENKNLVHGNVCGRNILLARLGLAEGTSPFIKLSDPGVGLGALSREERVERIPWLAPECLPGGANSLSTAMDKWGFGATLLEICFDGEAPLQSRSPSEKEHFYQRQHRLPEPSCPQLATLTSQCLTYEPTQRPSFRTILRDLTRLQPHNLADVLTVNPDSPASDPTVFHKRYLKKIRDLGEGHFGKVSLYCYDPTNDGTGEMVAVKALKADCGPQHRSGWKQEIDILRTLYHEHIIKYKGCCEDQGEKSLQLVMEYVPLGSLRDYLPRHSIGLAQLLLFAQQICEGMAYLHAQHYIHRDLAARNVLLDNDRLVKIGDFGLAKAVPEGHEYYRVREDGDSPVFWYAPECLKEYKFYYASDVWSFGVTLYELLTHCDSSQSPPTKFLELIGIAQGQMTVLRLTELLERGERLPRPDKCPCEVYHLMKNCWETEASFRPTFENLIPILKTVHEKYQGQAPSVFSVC

SMILES | Kd (Tyk2) | Kd (JAK3) | IC50 [1] | Kd (JAK2)
CC(=O)Nc1cccc2c(Nc3cc(C)[nH]n3)nc(C(F)(F)c3ccc(F)cn3)nc12 [Example 48, N-(2-(difluoro(5-fluoropyridin-2-yl)methyl)-4-((5-methyl-1H-pyrazol-3-yl)amino)quinazolin-8-yl)acetamide] | ≤ 10 nM | ≤ 10 nM | ≤ 100 nM | ≤ 1 nM
Cc1cc(Nc2nc(C(F)(F)c3ccc(F)cn3)nc3c([N+](=O)[O-])cccc23)n[nH]1 [Example 49, 2-(difluoro(5-fluoropyridin-2-yl)methyl)-N-(5-methyl-1H-pyrazol-3-yl)-8-nitroquinazolin-4-amine] | 10 to 100 nM | 10 to 100 nM | 100 to 500 nM | 1 to 10 nM
Cc1cc(Nc2nc(C(F)(F)c3ccc(F)cn3)nc3c(N)cccc23)n[nH]1 [Example 50, 2-(difluoro(5-fluoropyridin-2-yl)methyl)-N4-(5-methyl-1H-pyrazol-3-yl)quinazoline-4,8-diamine] | ≤ 10 nM | ≤ 10 nM | ≤ 100 nM | ≤ 1 nM
Cc1cc(Nc2nc(C(F)(F)c3ccc(F)cn3)nc3c(C4CC4)cccc23)n[nH]1 [Example 51, 8-cyclopropyl-2-(difluoro(5-fluoropyridin-2-yl)methyl)-N-(5-methyl-1H-pyrazol-3-yl)quinazolin-4-amine] | ≤ 10 nM | 10 to 100 nM | 100 to 500 nM | ≤ 1 nM
Cc1cc(Nc2nc(C(F)(F)c3ccc(F)cn3)nc3c(NS(C)(=O)=O)cccc23)n[nH]1 [Example 52, N-(2-(difluoro(5-fluoropyridin-2-yl)methyl)-4-((5-methyl-1H-pyrazol-3-yl)amino)quinazolin-8-yl)methanesulfonamide] | ≤ 10 nM | ≤ 10 nM | ≤ 100 nM | ≤ 1 nM
Cc1cc(Nc2nc(C(F)(F)c3ccc(F)cn3)nc3c(C(=O)O)cccc23)n[nH]1 [Example 53, 2-(difluoro(5-fluoropyridin-2-yl)methyl)-4-((5-methyl-1H-pyrazol-3-yl)amino)quinazoline-8-carboxylic acid] | ≤ 10 nM | ≤ 10 nM | 100 to 500 nM | ≤ 1 nM
